Measurements taken from the NIST ThermoML archive (doi:10.1016/j.tca.2016.03.013).
Several values for one entry are separate records, joined by “and”; a condition that tells them apart may be missing. Identical values can stand only once.

Tests used:
[1] = for vapor or sublimation pressure: Liquid, Rate of evaporation; for Normal melting temperature: Crystal, DTA
[2] = molar heat capacity at constant pressure; settings: 101.33 kPa, Small sample (50 mg) DSC
[3] = Molar enthalpy of transition or fusion; settings: Crystal; DSC

c1ccc2c(c1)ccc1ccccc12 [phenanthrene]
[1]
Settings | vapor or sublimation pressure [kPa]
384 K | 0.0567
388 K | 0.0795
392 K | 0.097
396 K | 0.1144
400 K | 0.146
404 K | 0.1785
408 K | 0.2069
412 K | 0.2439
416 K | 0.2926
420 K | 0.3468

[Al+3].[Al+3].[O-2].[O-2].[O-2] [aluminum oxide (Al2O3)]
[2], Crystal
Settings | molar heat capacity at constant pressure [J/K/mol]
298.15 K | 78.8
350 K | 88.2
450 K | 101.33

c1ccc2c(c1)OCCOCCOc1ccccc1OCCOCCO2 [dibenzo[b,k][1,4,7,10,13,16]hexaoxacyclooctadecane]
[2]
Settings | molar heat capacity at constant pressure [J/K/mol]
295 K, Crystal | 434.6
298.15 K, Crystal | 439.7
300 K, Crystal | 443.6
305 K, Crystal | 449
310 K, Crystal | 457.8
315 K, Crystal | 462.9
320 K, Crystal | 468.4
325 K, Crystal | 474.6
330 K, Crystal | 481.5
335 K, Crystal | 487.5
340 K, Crystal | 494.7
345 K, Crystal | 500.5
350 K, Crystal | 506.2
355 K, Crystal | 513.3
360 K, Crystal | 520.1
365 K, Crystal | 527
370 K, Crystal | 533.2
375 K, Crystal | 540.2
380 K, Crystal | 547.6
385 K, Crystal | 555.2
390 K, Crystal | 563.2
395 K, Crystal | 571.3
400 K, Crystal | 580.1
405 K, Crystal | 588.7
410 K, Crystal | 596.8
415 K, Crystal | 604.8
445 K, Liquid | 755.4
450 K, Liquid | 761
455 K, Liquid | 768.7
460 K, Liquid | 772.5
465 K, Liquid | 780.2
470 K, Liquid | 787
475 K, Liquid | 792
480 K, Liquid | 799.7
485 K, Liquid | 806
490 K, Liquid | 812.6

[1]
Settings | vapor or sublimation pressure
545 K | 0.5186 kPa and 0.4924 kPa and 0.5452 kPa
550 K | 0.6057 kPa and 0.6363 kPa and 0.6637 kPa
555 K | 0.7424 kPa and 0.8052 kPa and 0.7755 kPa
560 K | 0.9045 kPa and 0.9751 kPa and 0.9424 kPa
565 K | 1.095 kPa and 1.169 kPa and 1.137 kPa
570 K | 1.323 kPa and 1.398 kPa and 1.369 kPa
575 K | 1.589 kPa and 1.663 kPa and 1.638 kPa
580 K | 1.903 kPa and 1.969 kPa and 1.948 kPa
585 K | 2.258 kPa and 2.321 kPa and 2.316 kPa
590 K | 2.673 kPa and 2.72 kPa and 2.717 kPa
595 K | 3.164 kPa and 3.142 kPa and 3.16 kPa

Settings | Molar enthalpy of transition or fusion [kcal/mol] | Normal melting temperature [°C]
[1] | – | 162.50
[3] | 13.4 | –

C1COCCOCCOCCOCCOCCO1 [1,4,7,10,13,16-hexaoxacyclooctadecane]
[2]
Settings | molar heat capacity at constant pressure [J/K/mol]
290 K, Crystal | 380.3
291 K, Crystal | 388.3
292 K, Crystal | 394.8
293 K, Crystal | 401.7
294 K, Crystal | 409.8
295 K, Crystal | 418.9
296 K, Crystal | 428.4
297 K, Crystal | 440.7
298 K, Crystal | 457
298.15 K, Crystal | 460
299 K, Crystal | 479.4
315 K, Liquid | 515
320 K, Liquid | 516.5
325 K, Liquid | 518.7
330 K, Liquid | 521.5
335 K, Liquid | 522.8
340 K, Liquid | 524.9
345 K, Liquid | 526.3
350 K, Liquid | 527.8
355 K, Liquid | 528.8
410 K, Liquid | 562.4
415 K, Liquid | 567.4
420 K, Liquid | 573.6
425 K, Liquid | 578.6
430 K, Liquid | 582.6
435 K, Liquid | 587.1
440 K, Liquid | 590.4
445 K, Liquid | 595.2
450 K, Liquid | 599.4
455 K, Liquid | 603
460 K, Liquid | 607.7
465 K, Liquid | 612.5
470 K, Liquid | 617.4
475 K, Liquid | 621.3
480 K, Liquid | 626.4
485 K, Liquid | 630.9
490 K, Liquid | 635.9

[1]
Settings | vapor or sublimation pressure
430 K | 0.3102 kPa and 0.3376 kPa and 0.3358 kPa
435 K | 0.4315 kPa and 0.4219 kPa and 0.4305 kPa
440 K | 0.5414 kPa and 0.5488 kPa and 0.5487 kPa
445 K | 0.6904 kPa and 0.6934 kPa and 0.6846 kPa
450 K | 0.858 kPa and 0.8682 kPa and 0.8441 kPa
455 K | 1.063 kPa and 1.052 kPa
460 K | 1.315 kPa and 1.31 kPa and 1.317 kPa
465 K | 1.616 kPa and 1.619 kPa and 1.602 kPa
470 K | 1.972 kPa and 1.959 kPa and 1.967 kPa
475 K | 2.394 kPa and 2.387 kPa and 2.399 kPa
480 K | 2.879 kPa and 2.853 kPa and 2.858 kPa

Settings | Molar enthalpy of transition or fusion [kcal/mol] | Normal melting temperature [°C]
[1] | – | 39.17
[3] | 9.56 | –
